Measured values published in PubChem BioAssay (NCI).
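1) Cells in 96-well plates. 2) Compound, 48 h, 5 concentrations. 3) Linear interpolation between surrounding doses. 4) Unreached endpoint = highest concentration. GI50: concentration for 50% inhibition of growth. TGI marks complete inhibition of growth.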

Columns and labels:
Assay in all cases: DTP human tumour cell line panel, 48 h
ACHN renal = tested on: ACHN renal
MOLT-4 leukemia = tested on: MOLT-4 leukemia
NCI/ADR-RES ovarian = tested on: NCI/ADR-RES ovarian
M14 melanoma = tested on: M14 melanoma
DU-145 prostate = tested on: DU-145 prostate
NCI-H23 lung = tested on: NCI-H23 lung
COLO 205 colon = tested on: COLO 205 colon
OVCAR-8 ovarian = tested on: OVCAR-8 ovarian
BT-549 breast = tested on: BT-549 breast
LOX IMVI melanoma = tested on: LOX IMVI melanoma

SMILES | GI50 (ACHN renal) [µM] | TGI (ACHN renal) [µM] | GI50 (MOLT-4 leukemia) [µM] | TGI (MOLT-4 leukemia) [µM] | GI50 (NCI/ADR-RES ovarian) [µM] | TGI (NCI/ADR-RES ovarian) [µM] | GI50 (M14 melanoma) [µM] | TGI (M14 melanoma) [µM] | GI50 (DU-145 prostate) [µM] | TGI (DU-145 prostate) [µM] | GI50 (NCI-H23 lung) [µM] | TGI (NCI-H23 lung) [µM] | GI50 (COLO 205 colon) [µM] | TGI (COLO 205 colon) [µM] | GI50 (OVCAR-8 ovarian) [µM] | TGI (OVCAR-8 ovarian) [µM] | GI50 (BT-549 breast) [µM] | TGI (BT-549 breast) [µM] | GI50 (LOX IMVI melanoma) [µM] | TGI (LOX IMVI melanoma) [µM]
Cc1cc(O)c(C2=NN(c3ccc(S(N)(=O)=O)cc3)C(/C=C/c3ccccc3)C2)cc1Cl (stereo not given) | 5.27 | 21.9 | 17.7 | 73.7 | 9.26 | 22.7 | 6.16 | 19.3 | 14.1 | 38.6 | 1.68 | 12.5 | 10.4 | 22.1 | 3.03 | 20.2 | 6.12 | 21.3 | 3.94 | 16.2
C[C@@H](CO)NC(=O)c1cc(-c2ccc(Cl)cc2)nn(-c2cnn(C)c2)c1=O | 15.4 | 67.2 | 15.9 | 91.5 | 16.7 | 71.9 | 31.1 | > 100 | 29.6 | > 100 | 27.9 | > 100 | 24.7 | 90.6 | 26.3 | > 100 | 23.7 | 86.9 | 14.6 | 37.2
COc1c(N2CCN(CN3C(=O)C(=O)c4cc(Cl)ccc43)C(C)C2)c(F)cc2c(=O)c(C(=O)O)cn(C3CC3)c12 (stereo not given) | 32.1 | > 100 | 4.98 | > 100 | 76.4 | > 100 | 69.6 | > 100 | 70.6 | > 100 | 22 | > 100 | 80.6 | > 100 | 51.9 | > 100 | 37.3 | > 100 | 19 | > 100
COc1cc(C)c2sc3ccccc3c(=O)c2c1NCCN(C)C | 2.97 | 11.3 | 2.58 | 6.81 | 12.4 | 27 | 2.16 | 4.33 | 7 | 20 | 13.1 | 28 | 1.86 | 3.51 | 5.44 | 19.1 | 12.5 | 25.4 | 3.66 | 13.1
O=C1CC/C(=C/COc2cc(=O)oc3ccccc23)O1 | 1.29 | 2.55 | 3.78 | > 100 | 11.5 | 27.5 | 2.48 | 13 | 4.32 | 17.6 | 12.8 | 26.8 | 3.61 | 17.5 | 11.7 | 27.7 | 11.5 | 24.7 | 6.41 | 19.7
O=C(CC1C=Cc2ccccc2N1C(=O)c1ccccc1)c1ccccc1 (stereo not given) |  | > 100 |  | 34.6 |  | > 100 |  | 65.6 |  | > 100 |  | > 100 |  | 42.5 |  | > 100 |  | 69.7 |  | 67.8
CCOc1ccc2c(c1)c(CC(=O)O)cn2C |  | > 100 |  | > 100 |  | > 100 |  | > 100 |  | > 100 |  | > 100 |  | > 100 |  | > 100 |  | > 100 |  | > 100
O=C(CCCN1CCC(C(O)c2ccc(F)cc2)CC1)c1ccc(F)cc1 (stereo not given) |  | 99.9 |  | 142 |  | 149 |  | 109 |  | 118 |  | 134 |  | 110 |  | 125 |  | 93 |  | 103
CC(=O)Nc1n[n+]([O-])c2cc(C)ccc2[n+]1[O-] |  | 11.2 |  | > 100 |  | > 44.7 |  | 8.3 |  | 18.4 |  | 9.32 |  | 8.48 |  | 16.3 |  | 14.2 |  | 11.5
Cc1ccc(-n2nnnc2-c2cnc(N3CCOCC3)nc2-c2cccc(C(F)(F)F)c2)cc1 | 4 | > 14.7 | 2.18 | > 10.4 | 0.825 | 2.36 | 1.08 | 2.69 | 1.62 | 16.9 | 1.36 | 4.11 | 1.81 | > 13.5 | 2.83 | > 22.5 | 8.3 | 31.3 | 2.53 | 7.53
N#CC(C#N)=C/C=C(\Sc1ccc(F)cc1Cl)c1ccc(Cl)cc1 | 0.883 | 2.14 | 0.194 | > 100 | 0.791 | 7.53 | 0.433 | 2.03 | 0.657 | 8.55 | 0.449 | 2.49 | 0.515 | 5.02 | 0.601 | 6.46 | 0.598 | 3.7 | 0.318 | 1.3
CC(=O)O[C@H]1CC[C@@]2(C)C(=C/C(=N/OCCN3CCCC3)[C@H]3[C@@H]4CC[C@H](OC(C)=O)[C@@]4(C)CC[C@@H]32)C1 | > 100 | > 100 | 29.6 | 84.3 | > 100 | > 100 | 17.6 | 37.2 | > 100 | > 100 | > 100 | > 100 | 18.5 | 34.9 | > 100 | > 100 | 53.4 | > 100 | 19.6 | 38.1
Cn1cc(C2=C(Nc3ccccc3)C(=O)NC2=O)c2ccccc21 | > 25 | > 25 | > 23.1 | > 25 | > 25 | > 25 | > 25 | > 25 | > 25 | > 25 | > 25 | > 25 | > 25 | > 25 | > 25 | > 25 | > 25 | > 25 | > 25 | > 25
